Source: US11912787B2, “Peptide for skin aging prevention and wrinkle reduction, and composition comprising same” (DERMAFIRM, INC., priority 2019, dated 2024)
Like-named read-outs stand apart in the source and are kept apart here. Residues, ends and D or L forms follow the SMILES beside them. *: point of attachment. Palmitoyl = CCCCCCCCCCCCCCCC(=O)*

System: Fibroblasts
Assay: MTT cytotoxicity assay
Type: cell-based
Method: In order to examine the cytotoxicity of the novel peptides (GHK-R4 (SEQ ID NO.: 3) and Pal-GHK-R4 (SEQ ID NO.: 4)) according to the Examples of the present invention, MTT assay was performed. As a control, GHK-acetate was used. Fibroblasts were treated with various concentrations of each of the control and the novel peptides, and after 24 hours, treated with MTT reagent. Next, the absorbance was measured, and the viability of the cells was calculated based on the absorbance.

In the case of `NCCCC[C@H](NC(=O)[C@H](Cc1cnc[nH]1)NC(=O)CN)C(=O)O` [GHK-acetate, glycine-histidyl-lysine tripeptide, reference compound] (H-Gly-His-Lys-OH), the “IC30 (cell viability, MTT)” value is reported as “about 31.71 mM”.

`CCCCCCCCCCCCCCCC(=O)NCC(=O)N[C@@H](Cc1c[nH]cn1)C(=O)N[C@@H](CCCCN)C(=O)N[C@@H](CCCNC(=N)N)C(=O)N[C@@H](CCCNC(=N)N)C(=O)N[C@@H](CCCNC(=N)N)C(=O)N[C@@H](CCCNC(=N)N)C(=O)O` [Pal-GHK-R4, Pal-GlyHisLys-ArgArgArgArg-OH] (Palmitoyl-GHKRRRR-OH) was tested, and the “IC30 (cell viability, MTT)” value was roughly 8.70 µM.

“H-GHKRRRR-OH [GHK-R4, H-GlyHisLys-ArgArgArgArg-OH]” was tested, and the “IC30 (cell viability, MTT)” value (fibroblasts, 24 hours treatment) was roughly 5320 µM.
